# Reference: US20260345595A1, “NOVEL FLUORENE DERIVATIVE COMPOUND AND USE THEREOF” (JD BIOSCIENCE INC., priority 2022, published 2026)
# Legend:
# [1] = tested on: HCT-116 colorectal cancer; experiment: HCT-116 colorectal cancer tumor model; format: in vivo, nude mice; conditions: 0.5 and 1.0 mg/kg
# Protocol: A colorectal cancer model was established by subcutaneously transplanting HCT-116 colorectal cancer cell line into nude mice. The colorectal cancer model was divided into the following three groups: Group 1 was administered a vehicle as a control group, Group 2 was administered 0.5 mg/kg of Compound 1, and Group 3 was administered 1.0 mg/kg of Compound 1. The drug was orally administered once a day for a total of 21 times. To evaluate the therapeutic efficacy, the tumor size was measured before drug administration and on days 3, 7, 10, 14, 17, 21, and 24 after drug administration. The tumor size was calculated as follows:
# Tumor size (mm^3)=(A×B^2)/2 • wherein A and B represent the tumor long axis and short axis, respectively.
# In addition, the body weight was measured before drug administration and on days 7, 14, and 21 after drug administration.
# [2] = tested on: GvHD in vivo model in BALB/c mice; experiment: Graft-versus-host disease (GvHD) animal model; parameters: species or system mouse; conditions: for production of CD4+IFNg+T cells, mean value: spleen, day 14
# Protocol: 5-week-old BALB/c male mice were acclimatized for 1 week and irradiated with 800 cGy of total body irradiation. Then, 5×10^6 bone marrow cells derived from C57BL/6J and 1×10^7 spleen cells were intravenously injected to establish a GvHD in vivo model (positive control). A syngeneic control group was established in the same manner as above, but BALB/c-derived bone marrow cells were selected as the injected bone marrow cells. Compound 1 Daily was established by daily oral gavage of 1 mg/kg of Compound 1 to the GvHD in vivo model. Compound 1 Initial only was established by orally administering 1 mg/kg of Compound 1 to the GvHD in vivo model only for 6 days after model induction. The therapeutic effect of Compound 1 was verified by measuring the change in body weight every 3 days for each control and experimental group established as above, and the results are shown in FIG. 11 and Table 4. On day 14, the production of CD4^+IFNg^+T cells, which is a major factor inducing GvHD, was measured in the spleens isolated from the mice, and the results are shown in FIG. 12 and Table 5.
# [3] = tested on: cerulein-induced acute pancreatitis in mice; experiment: Cerulein-induced acute pancreatitis animal model; format: in vivo, mouse; conditions: 5 μg/kg or 10 μg/kg, tail vein; versus Cerulein; FIG. 8
# Protocol: Acute pancreatitis was induced by intraperitoneal administration of cerulein (50 μg/kg) dissolved in saline to 8-week-old male mice. Compound 1 was administered at a concentration of 5 μg/kg or 10 μg/kg into the tail vein 24 hours and 1 hour before cerulein administration, and cerulein was intraperitoneally administered six times at 1-hour intervals. 18 hours after the first cerulein administration, the mice were anesthetized, the serum was separated, and the amylase and lipase activities in the serum were measured, which are shown in FIG. 8.
# Mfn2−/− MEF cells = experiment: Mitochondrial oxygen consumption rate, Charcot-Marie-Tooth disease model; format: cell-based, mouse; conditions: 1 μM, 24 hours, FIG. 13
# Protocol: To verify the functional loss due to mutation of MFN2 present in the outer mitochondrial membrane, which is the main cause of Charcot-Marie-Tooth disease, the mitochondrial oxygen consumption rate (OCR) was measured. In detail, Mfn2^+/^+MEF cells (normal cells), which are mouse embryonic fibroblasts expressing Mfn2, and Mfn2/MEF cells not expressing Mfn2 were cultured at a density of 1×10^4 for 24 hours in a Seahorse […] culture dish using a DMEM medium supplemented with 10% FBS and penicillin/streptomycin. The cells were treated with DMSO as a vehicle and Compound 1 (1 μM) and cultured for another 24 hours. The mitochondrial oxygen consumption rate was measured using a Seahorse XFe96 analyzer (Agilent Technologies), and the results are shown in FIG. 13.
# [4] = tested on: normal cells (BJ, CHO, Raw264.7, L929); experiment: Growth inhibition of normal cells, Cell Counting Kit-8; format: cell-based, human (BJ); hamster (CHO); murine (Raw264.7); mouse (L929); conditions: concentrations of up to less than 40 μM, 24 hours
# Protocol: (§1) In order to verify the growth inhibitory effect of Compound 1 on various normal and cancer cell lines, 25 types of cell lines listed in Table 7 below were tested. In detail, each cell was seeded at a density of 2×10^4 cells/well in a 96-well plate and cultured for 24 hours, and then the medium was replaced with a medium comprising 0.5% (for cancer cells) or 10% (for normal cells) FBS, and Compound 1 was treated at various concentrations. 24 hours later, 10 μL of Cell Counting Kit-8 (Dojindo Molecular Technologies) was added, and 1 hour later, absorbance at 480 nm was measured using a microplate reader (TECAN SPARK), and the results are shown in FIGS. 15 to 21.
# [5] = as above; format: cell-based, human (BJ); hamster (CHO); murine (Raw264.7); mouse (L929); conditions: normal cells, concentration of up to less than 40 μM, 10% FBS, FIG. 15
# Protocol: as §1
# [6] = tested on: LPS-induced sepsis in C57BL6J mice; experiment: LPS-induced sepsis animal model, viability; format: in vivo, mouse; conditions: for Viability: 15 mg/kg i.p. before 50 mg/kg LPS
# Protocol: 50 mg/kg of lipopolysaccharide (LPS) administration dose corresponds to the ‘half lethal dose’ that causes death of one half of the population within 24 hours. […] The animal experiment was conducted with six 8-week-old male C57BL6J mice per group. Each mouse was intraperitoneally administered 15 mg/kg of Compound 1 or pretreated with 100 μL of 10% DMSO (vehicle control). 30 minutes later, 50 mg/kg lipopolysaccharide was intraperitoneally injected into each mouse, and the viability was examined for 80 hours, and the results are shown in FIG. 9 and Table 2.
# CT26 colorectal cancer = CT26 colorectal cancer tumor model; format: in vivo, nude mice; conditions: 1.0 mg/kg, FIG. 22
# Protocol: A colorectal cancer model was established by subcutaneously transplanting CT26 colorectal cancer cell line into nude mice. The colorectal cancer model was divided into two groups: vehicle administration group and Compound 1 administration group. […] Similar to Experimental Example 13, tumor size was calculated before drug administration and on days 3, 7, 10, 14, 18, 22, and 24 after drug administration, and body weight was measured before drug administration and on days 7, 14 and 22 after drug administration, which are shown in FIG. 22.
# cancer cells = experiment: Growth inhibition of cancer cells, Cell Counting Kit-8; format: cell-based; conditions: 24 hours, 0.5% FBS; FIGS. 16 to 20
# Protocol: as §1
structure (smiles),measurement,setting,value
"CC(C(=O)NNc1ccc(F)cc1)n1cc(-c2cc(F)cc3c2-c2ccccc2C3(O)C(F)(F)F)cn1 (stereo not shown) [Compound 1, 2-(4-(2-fluoro-9-hydroxy-9-(trifluoromethyl)-9H-fluoren-4-yl)-1H-pyrazol-1-yl)-N′-(4-fluorophenyl)propanehydrazide]",body weight change,"[1]; oral once a day, 21 times",no significant body weight change
same,tumor growth (in words),"[1]; oral, p<0.05 versus vehicle, FIG. 21",statistically significant concentration-dependent tumor growth inhibitory effect
same,body weight recovery (in words),"[2]; Daily and Initial only, 1 mg/kg oral, versus control, FIG. 11",significantly recovered
same,production of allogeneic CD4+IFNg+T cells (in words),"[2]; Daily and Initial only, 1 mg/kg oral, versus control, FIG. 12",significantly reduced
same,"production of CD4+IFNg+T cells, mean value","[2]; Daily, 1 mg/kg oral gavage",10.28
same,"production of CD4+IFNg+T cells, mean value","[2]; Initial only (6 days), 1 mg/kg oral",13.04
same,serum amylase activity,[3],decreased by administration of Compound 1 in a dose-dependent manner
same,serum lipase activity,[3],decreased by administration of Compound 1 in a dose-dependent manner
same,mitochondrial oxygen consumption rate (OCR),Mfn2−/− MEF cells,markedly restored to a level comparable to that of normal cells
same,toxicity on normal cells,[4],does not exhibit toxicity on normal cells
same,viability at 24 h,[5],≥ 70%
same,Viability,[6]; 0 h,100%
same,Viability,[6]; 20 h,100%
same,Viability,[6]; 24 h,83.3%
same,Viability,[6]; 28 h,83.3%
same,Viability,[6]; 32 h,83.3%
same,Viability,[6]; 36 h,66.7%
same,Viability,[6]; 40 h,66.7%
same,Viability,[6]; 44 h,66.7%
same,Viability,[6]; 48 h,66.7%
same,Viability,[6]; 50 h,66.7%
same,Viability,[6]; 60 h,50%
same,Viability,[6]; 70 h,50%
same,Viability,[6]; 80 h,50%
same,viability in sepsis-induced animal model (in words),"[6]; 15 mg/kg i.p., p<0.01 versus LPS+vehicle, FIG. 9",had the effect of improving the viability
same,body weight change,CT26 colorectal cancer,Neither the vehicle administration group nor the compound 1 administration group showed any change in the body weight
same,tumor growth (in words),CT26 colorectal cancer; p<0.05 versus vehicle,statistically significantly delayed and inhibited
same,viability of cancer cells (in words),cancer cells,decreased the viability of cancer cells in a concentration-dependent manner
